Patent US20260356803A1, “Nicotinamide derivatives” (Board of Regents, The University of Texas System, priority 2024, published 2026)

Columns and labels:
[1] = tested on: NMNAT1 or alcohol dehydrogenase; assay: Counter screen with NMN in place of NAM; format: biochemical; conditions: role: inhibitor; 50 μM NMN substituted for NAM
Method: NAMPT activity was measured using a coupled-enzyme assay previously described [Revollo, 2014]. Briefly, reactions consisting of 50 mM Tris pH 8, 0.4 mM PRPP, 2.5 mM ATP, 12 mM MgCl2, 0.02% BSA, 1 μM NAMPT, 77 nM NMNAT1, 10 mM semicarbazide, 30 μg/ml alcohol dehydrogenase were set up in a 384-well plate (50 μl/well). […] The reactions were started by addition of 50 μM NAM. Fluorescence due to NADH formation by alcohol dehydrogenase was measured in a BioTek Cytation 5 plate reader (Agilent, USA) set up for excitation at λ=340 nm and detection of emission at λ=460 nm. To counter screen for NMNAT1 or alcohol dehydrogenase inhibition, the assay was set up above but substituting 50 μM NMN (substrate for NMNAT1) for NAM. No inhibition of was observed under these conditions.

[2] = tested on: NAMPT and NMNAT1; assay: Cell-free metabolism by NAMPT and NMNAT1; format: biochemical; conditions: role: substrate, 200 μM compound, NMNAT1, 0.4 mM PRPP, 2.5 mM ATP, 37 °C
Method: (§1) We reasoned that 1 and 9 would likely be metabolized to 1-mononucleotide (1-MN) and 9-mononucleotide (9-MN) by NAMPT and then to 1-adenine dinucleotide (1-AD) and 9-adenine dinucleotide (9-AD) by NMNAT1. Thus, we analyzed extracts from cell-free reactions that co-incubate each compound with NAMPT, NMNAT1, PRPP, and ATP by high-resolution mass spectrometry to identify these putative metabolites based on exact mass. […] To test whether these compound metabolites were also produced in cells, we analyzed metabolic extracts from cells treated with either 1 or 9.
A reaction mixture containing 50 mM Tris pH 8, 0.4 mM PRPP, 2.5 mM ATP, 12 mM MgCl2, 0.02% BSA, 1 μM NAMPT, 100 nM NMNAT1 and 200 μM compound 9 or 1 was incubated at 37 °C. Fifty microliter aliquots were quenched at the indicated time points by adding two volumes of acetonitrile with 0.1% formic acid and vortexing for 15 seconds. After incubation for ten minutes at room temperature, samples were centrifuged at 13,200 rpm for 5 minutes. The supernatants were filtered through 0.2 μm PVDF filters (Sigma #SLGV004SL) and analyzed by LC-MS/TOF. […]
(§2) Data analysis for TOF data was performed using SCIEX MultiQuant software version 3.0.3. For each of the compounds monitored, the theoretical exact m/z was calculated. […]

[3] = tested on: S462 cells; assay: Metabolism in S462 cells; format: cell-based, human; conditions: 500 nM compound
Method: as §1
Prior to the experiment, cells were cultured in low-Nam DMEM for at least 1 passage (3 days) to deplete intracellular Nam. 15,000 cells were plated in a 96-well plate with 100 μL low-Nam media. At appropriate time points, 500 nM 1 or 9, or equal volume of vehicle (DMSO) were added using TECAN. 200 μL of acetonitrile with 0.1% formic acid were added to the assayed wells. For the 0-hour time point, compound or vehicle was added after the addition of acetonitrile and formic acid. […] The supernatants were filtered through 0.2 μm PVDF filters and analyzed by LC-MS/TOF. […]
as §2

Row | SMILES | inhibition in counter screen [1] | levels of parent compound over time [2] | levels of parent compound over time in cells [3]
1 | O=C(Nc1cccnc1)c1cccs1 [Compound 1, N-(pyridin-3-yl)thiophene-2-carboxamide] | No inhibition | time-dependent decrease | time-dependent depletion
2 | O=C(Nc1cccs1)c1cccnc1 [Compound 9, N-(Thiophen-2-yl)nicotinamide] | No inhibition | time-dependent decrease | time-dependent depletion
